Assay results: US20080063628A1, “METHODS TO PROMOTE CELL DIFFERENTIATION” (priority 2006, published 2008)

Experiments:
Format in all cases: cell-based, human
[1] = system: late passage pancreatic-derived stromal cells; assay: Chronic trichostatin A treatment, gene expression by RT-PCR (Example 5)
Procedure: Pancreatic-derived stromal cells were obtained according to the methods described in Example 13. Cells were seeded into a 24-well tissue culture plate at a density of 5000/cm^2 and cultured in DMEM with 10% FBS under standard cell culture conditions until confluent. After the cells reached confluency, sample wells were treated with either 1.25 μM or 2.5 μM trichostatin A diluted in DMSO and medium; control wells received DMSO at an equivalent concentration. At 24 hour intervals over the three day culture period, cultures underwent a complete medium change, and a fresh dilution of trichostatin A or DMSO was added as appropriate. RNA samples were obtained from treated cultures daily after the initial addition of trichostatin A or DMSO. Culture medium was removed, cells were washed with PBS, and RLT lysis buffer with β-mercaptoethanol (Qiagen) was added. RNA was purified using the RNeasy Mini Kit (Qiagen), and RNA quantity and quality was determined using a spectrophotometer. cDNA was made using the iScript cDNA synthesis kit (BioRad).
Expression levels of Sox17, HNF-3 beta, Pdx-1, insulin, and glucagon were determined by RT-PCR. Samples of 20 ng cDNA were used in each reaction, which was performed on the Applied Biosystems 7500, according to the methods described in Example 15. Data were analyzed using the accompanying software. Human pancreas cDNA was included as a control. Results were normalized against GAPDH expression levels.
(§1) Real-time PCR amplifcation and quantitative analysis. Unless otherwise stated, all reagents were purchased from Applied Biosystems. Real-time PCR reactions were performed using the ABI PRISM™ 7500 Sequence Detection System. TAQMAN™ FAST UNIVERSAL PCR MASTER MIX™ (ABI, CA) was used with 20 ng of reverse transcribed RNA in a total reaction volume of 20 μl. Each cDNA sample was run in duplicate to allow correction of pipetting errors. Primers and FAM-labeled TAQMAN™ probes were used at concentrations of 200 nM. The level of expression for each target gene was normalized using the pre-developed Applied Biosystem's human glyceraldehyde-3-phosphate dehydrogenase (GAPDH) endogenous control kit. Primers and probes were designed using either ABI PRISM PRIMER EXPRESS™ software or a pre-developed ABI gene analysis kit. For each gene, either one of the primers or the probe were designed to be exon-boundary spanning. This eliminated the possibility of the primers/probe binding to any genomic DNA present. The primer and probe sets are listed as follows: Pdx-1 (Hs00426216), Insulin (Hs00355773), glucagon (Hs00174967), and FoxA2 (HNF 3-beta) (Hs00232764). The remaining primers were designed using the PRIMERS program (ABI, CA). After an initial 95° C. incubation for 20 sec, samples were cycled 40 times in two stages: a denaturation step at 95° C. for 3 sec, followed by an annealing/extension step at 60° C. for 30 sec.
(§2) For each primer/probe set, a cycle time value was determined as the cycle number at which the fluorescence intensity of the PCR reaction reached a specific value in the middle of the exponential region of amplification. An increase in expression of a gene corresponded to a decrease in the number of cycles required for the fluorescence intensity to reach this value.

Panc-1 cells = assay: Trichostatin A 48 h treatment, gene expression by Real-Time PCR (Example 1); conditions: for GAPDH gene expression / HNF-3 beta gene expression / Insulin gene expression / PDX-1 gene expression / Sox17 gene expression / glucagon gene expression: 48 hours
Procedure: (§3) Neonatal fibroblasts, also designated Hs27, were derived from human foreskins and obtained from the American Type Culture Collection (ATCC). Panc-1 cells are a transformed cell line derived from a pancreatic epitheloid carcinoma of ductal origin, also obtained from ATCC.
(§4) Fibroblasts or Panc-1 cells were seeded into a 6-well tissue culture plate at a density of 50,000 cells/cm^2. Both cell types were cultured in medium containing 10% FBS and DMEM under standard cell culture conditions (37° C., 5% CO2). After reaching confluence (2-3 days), trichostatin A diluted in dimethyl sulfoxide (DMSO) and medium was added at either 2.5 μM or 5 μM to the cultures. Parallel cultures were treated with an equivalent concentration of DMSO as a vehicle control.
(§5) RNA samples were obtained from the treated cultures 48 hours after the addition of trichostatin A or DMSO. The culture medium was removed, the cells were washed with phosphate buffered saline (PBS), and RLT Lysis buffer containing β-mercaptoethanol (Qiagen) was added. The samples were homogenized using Qiashredder columns (Qiagen), and RNA was purified using the RNeasy Mini Kit (Qiagen). RNA quantity and quality was determined using a spectrophotometer, and cDNA was made using the iScript cDNA synthesis kit (BioRad).
(§6) The expression levels of Sox17, HNF-3 beta, Pdx-1, insulin, and glucagon were determined by Real-Time PCR (RT-PCR), as described in Example 15. Samples of 20 ng cDNA were used in each reaction. RT-PCR reactions were performed on the Applied Biosystems 7500, and data was analyzed using the accompanying software. Human pancreas cDNA was included as a positive control. Results were normalized against GAPDH expression levels.
as §1, §2

[2] = system: Neonatal fibroblasts (Hs27); assay: as above
Procedure: as §3, §4, §5, §6, §1, §2

[3] = 1.25 μM renewed daily, 24 hours
[4] = 1.25 μM renewed daily, 48 hours
[5] = 1.25 μM renewed daily, 72 hours
[6] = Panc-1 cells treated for 48 hours

Structure (SMILES): CC(/C=C/C(=O)NO)=C\[C@@H](C)C(=O)c1ccc(N(C)C)cc1 [trichostatin A]
- HNF-3 beta gene expression [1, 3]: +++ (detectable at less than 35 cycles by RT-PCR with std error less than 0.9)
- Insulin gene expression [1, 3]: nd (not detectable at >40 cycles by RT-PCR)
- PDX-1 gene expression [1, 3]: + (detectable between 35 and 40 cycles by RT-PCR)
- Sox17 gene expression [1, 3]: +++ (detectable at less than 35 cycles by RT-PCR with std error less than 0.9)
- glucagon gene expression [1, 3]: + (detectable between 35 and 40 cycles by RT-PCR)
- HNF-3b gene expression [1, 4]: ++ (detectable at less than 35 cycles by RT-PCR with std error greater than 0.9)
- Insulin gene expression [1, 4]: nd (not detectable at >40 cycles by RT-PCR)
- PDX-1 gene expression [1, 4]: +++ (detectable at less than 35 cycles by RT-PCR with std error less than 0.9)
- Sox17 gene expression [1, 4]: +++ (detectable at less than 35 cycles by RT-PCR with std error less than 0.9)
- glucagon gene expression [1, 4]: + (detectable between 35 and 40 cycles by RT-PCR)
- HNF-3b gene expression [1, 5]: +++ (detectable at less than 35 cycles by RT-PCR with std error less than 0.9)
- Insulin gene expression [1, 5]: nd (not detectable at >40 cycles by RT-PCR)
- PDX-1 gene expression [1, 5]: +++ (detectable at less than 35 cycles by RT-PCR with std error less than 0.9)
- Sox17 gene expression [1, 5]: +++ (detectable at less than 35 cycles by RT-PCR with std error less than 0.9)
- glucagon gene expression [1, 5]: + (detectable between 35 and 40 cycles by RT-PCR)
- HNF-3 beta gene expression ([1]; 2.5 μM renewed daily, 24 hours): + (detectable between 35 and 40 cycles by RT-PCR)
- Insulin gene expression ([1]; 2.5 μM renewed daily, 24 hours): nd (not detectable at >40 cycles by RT-PCR)
- PDX-1 gene expression ([1]; 2.5 μM renewed daily, 24 hours): +++ (detectable at less than 35 cycles by RT-PCR with std error less than 0.9)
- Sox17 gene expression ([1]; 2.5 μM renewed daily, 24 hours): +++ (detectable at less than 35 cycles by RT-PCR with std error less than 0.9)
- glucagon gene expression ([1]; 2.5 μM renewed daily, 24 hours): nd (not detectable at >40 cycles by RT-PCR)
- HNF-3b gene expression ([1]; 2.5 μM renewed daily, 48 hours): + (detectable between 35 and 40 cycles by RT-PCR)
- Insulin gene expression ([1]; 2.5 μM renewed daily, 48 hours): nd (not detectable at >40 cycles by RT-PCR)
- PDX-1 gene expression ([1]; 2.5 μM renewed daily, 48 hours): +++ (detectable at less than 35 cycles by RT-PCR with std error less than 0.9)
- Sox17 gene expression ([1]; 2.5 μM renewed daily, 48 hours): +++ (detectable at less than 35 cycles by RT-PCR with std error less than 0.9)
- glucagon gene expression ([1]; 2.5 μM renewed daily, 48 hours): + (detectable between 35 and 40 cycles by RT-PCR)
- HNF-3b gene expression ([1]; 2.5 μM renewed daily, 72 hours): +++ (detectable at less than 35 cycles by RT-PCR with std error less than 0.9)
- Insulin gene expression ([1]; 2.5 μM renewed daily, 72 hours): nd (not detectable at >40 cycles by RT-PCR)
- PDX-1 gene expression ([1]; 2.5 μM renewed daily, 72 hours): + (detectable between 35 and 40 cycles by RT-PCR)
- Sox17 gene expression ([1]; 2.5 μM renewed daily, 72 hours): +++ (detectable at less than 35 cycles by RT-PCR with std error less than 0.9)
- glucagon gene expression ([1]; 2.5 μM renewed daily, 72 hours): nd (not detectable at >40 cycles by RT-PCR)
- GAPDH gene expression (Panc-1 cells; 2.5 μM): +++ (detectable at less than 35 cycles by RT-PCR with SE less than 0.9)
- HNF-3 beta gene expression (Panc-1 cells; 2.5 μM): +++ (detectable at less than 35 cycles by RT-PCR with SE less than 0.9)
- Insulin gene expression (Panc-1 cells; 2.5 μM): + (detectable at greater than 35–40 cycles by RT-PCR)
- PDX-1 gene expression (Panc-1 cells; 2.5 μM): +++ (detectable at less than 35 cycles by RT-PCR with SE less than 0.9)
- Sox17 gene expression (Panc-1 cells; 2.5 μM): +++ (detectable at less than 35 cycles by RT-PCR with SE less than 0.9)
- glucagon gene expression (Panc-1 cells; 2.5 μM): +++ (detectable at less than 35 cycles by RT-PCR with SE less than 0.9)
- GAPDH gene expression (Panc-1 cells; 5.0 μM): +++ (detectable at less than 35 cycles by RT-PCR with SE less than 0.9)
- HNF-3 beta gene expression (Panc-1 cells; 5.0 μM): +++ (detectable at less than 35 cycles by RT-PCR with SE less than 0.9)
- Insulin gene expression (Panc-1 cells; 5.0 μM): + (detectable at greater than 35–40 cycles by RT-PCR)
- PDX-1 gene expression (Panc-1 cells; 5.0 μM): +++ (detectable at less than 35 cycles by RT-PCR with SE less than 0.9)
- Sox17 gene expression (Panc-1 cells; 5.0 μM): +++ (detectable at less than 35 cycles by RT-PCR with SE less than 0.9)
- glucagon gene expression (Panc-1 cells; 5.0 μM): +++ (detectable at less than 35 cycles by RT-PCR with SE less than 0.9)
- Pdx-1 expression with 5.0 μm versus 2.5 μM trichostatin A (Panc-1 cells; [6]): 11 times higher
- Sox-17 expression with 5.0 μm versus 2.5 μM trichostatin A (Panc-1 cells; [6]): 60 times higher
- glucagon expression with 5.0 μm versus 2.5 μM trichostatin A (Panc-1 cells; [6]): 5 times higher
- GAPDH gene expression ([2]; 2.5 μM): +++ (detectable at less than 35 cycles by RT-PCR with SE less than 0.9)
- HNF-3 beta gene expression ([2]; 2.5 μM): +++ (detectable at less than 35 cycles by RT-PCR with SE less than 0.9)
- Insulin gene expression ([2]; 2.5 μM): nd (not detectable at >40 cycles by RT-PCR)
- PDX-1 gene expression ([2]; 2.5 μM): + (detectable at greater than 35–40 cycles by RT-PCR)
- Sox17 gene expression ([2]; 2.5 μM): +++ (detectable at less than 35 cycles by RT-PCR with SE less than 0.9)
- glucagon gene expression ([2]; 2.5 μM): +++ (detectable at less than 35 cycles by RT-PCR with SE less than 0.9)
- GAPDH gene expression ([2]; 5.0 μM): +++ (detectable at less than 35 cycles by RT-PCR with SE less than 0.9)
- HNF-3 beta gene expression ([2]; 5.0 μM): +++ (detectable at less than 35 cycles by RT-PCR with SE less than 0.9)
- Insulin gene expression ([2]; 5.0 μM): nd (not detectable at >40 cycles by RT-PCR)
- PDX-1 gene expression ([2]; 5.0 μM): + (detectable at greater than 35–40 cycles by RT-PCR)
- Sox17 gene expression ([2]; 5.0 μM): +++ (detectable at less than 35 cycles by RT-PCR with SE less than 0.9)
- glucagon gene expression ([2]; 5.0 μM): +++ (detectable at less than 35 cycles by RT-PCR with SE less than 0.9)
